# From patent US12577530B2, “Generation of a population of hindbrain cells and hindbrain-like organoids from pluripotent stem cells” (The Regents of the University of California, priority 2018, dated 2026)
# What was measured:
# [1] = system: WTB and WTC hPSCs; assay: WNT activation (CHIR 99021) during V2a interneuron differentiation, flow cytometry of CHX10; format: cell-based, human; conditions: 2 μM CHIR99021 pretreatment two days and first 7 days of protocol, compared to untreated (UT) controls
# Procedure: To examine pretreatment effects of WNT, hiPSCs were plated onto a Matrigel-coated 24-well plate at 125,000 cells/cm^2 in mTeSR supplemented with 10 μM ROCK inhibitor and 2 μM CHIR99021. Two days later, the cell layers were dissociated with Accutase and the differentiation was performed as described above with the addition of 2 μM CHIR99021. The CHIR99021 treatment was continued until day 7.
# [2] = system: hPSCs; assay: Monolayer hindbrain differentiation with varied pur or RA concentration, flow cytometry of CHX10 and LHX5; format: cell-based, human
# Procedure: hPSCs were seeded in mTeSR supplemented with 10 μM ROCK inhibitor and dual SMAD inhibitors 0.2 μM LDN193189 and 10 μM SB431542 (StemGent, Cambridge, MA) at 5,000-100,000 cells/cm^2 onto 24-well plates coated with Matrigel. On day 3, medium was changed to m TeSR supplemented with dual SMAD inhibitors only. On day 5, the base medium was switched to neural induction medium (DMEM F: 12 (Corning, Corning, NY), N2 supplement (Life Technologies, Carlsbad, CA), L-Glutamine (VWR), 2 μg/ml heparin (Sigma Aldrich, St. Louis, MO), non-essential amino acids (Mediatech INC, Manassas, VA), penicillin-streptomycin (VWR) supplemented with fresh 0.4 ug/ml ascorbic acid (Sigma Aldrich) and 10 ng/ml brain derived neurotrophin factor (BDNF, R&D Systems, Minneapolis, MN)) supplemented with dual SMAD inhibitors and 10 nM-10 μM retinoic acid (Sigma Aldrich). On day 7, dual SMAD inhibition was ceased and 10 nM-10 μM retinoic acid, 10 nM-10 μM pur (EMD Millipore, Darmstast, Germany) and 1 μM N—[N-(3,5-difluorophenacetyl)-L-alanyl]-S-phenylglycine t-butyl ester (DAPT) were added to the neural induction medium. Medium was changed every 2-3 days throughout the differentiation, with fresh supplements added each time for up to 17 days.
# At day 17 of differentiation, cells were completely dissociated as described in 3.3.3 and stained with the Transcription Factor Buffer Set, which includes a fixation/permeabilization (FP) and wash/permeabilization (WP) buffer (BD Biosciences, Franklin Lakes, NJ). Dissociated samples were first fixed for 45 minutes at 4° C. in the FP buffer followed by a 20-minute block with WP buffer containing 5% normal donkey serum (NDS, Jackson Laboratory, Bay Harbor, ME). Primary antibodies against CHX10, LHX5, PHOX2A, and PHOX2B (Table 1) and the proper matching species isotype control were added into WP buffer containing 2% NDS and incubated at 4° C. for 45 minutes. After two washes with WP buffer, secondary antibodies donkey anti-mouse IgG, ALEXA FLUOR™ 488 (a fluorescent compound; Life Technologies), at a dilution of 1:200, were added to WP buffer and incubated at 4° C. for 45 minutes. After two washes with WP buffer, samples were passed through a 35-μm filter before assessing with a BD ACCURI™ C6 (BD) cytometer (minimum 10,000 events). Cytometry analysis was performed using FlowJo V10 (Flowjo, Ashland, OR).
# [3] = system: Human PSCs (organoids); assay: 3D organoid hindbrain differentiation, flow cytometry of CHX10, LHX5, PHOX2A, PHOX2B at day 17; format: cell-based
# Procedure: Human PSCs were seeded at 125 k cells/cm^2 in mTeSR supplemented with 10 μM ROCK inhibitor and 2 μM CHIR99102. For WNT treated cells, CHIR was supplemented into the media at each feed through day 7. 48 hours later, cell layers were dissociated using Accutase and counted. For organoid culture, 800 μm pyramidal PDMS inserts were placed into 24-well plates. 1 ml mTeSR containing 10 μM ROCK inhibitor was added to the wells containing the molds and the plate was centrifuged at 2,000×g for 3 minutes to get rid of any bubbles. Dissociated cells, either hPSCs or WNT pre-treated cells, were then added slowly into the wells at 10,000 cells per organoid in mTeSR supplemented with 10 μM ROCK inhibitor, 0.2 LDN193189, and 10 μM SB431542 ([…], Cambridge, MA). […] To change the media on the cells for the rest of the differentiation, the organoids were pipetted into a conical and allowed to settle. Old media was aspirated off and new media was used to resuspend the organoids and transfer them back to the 6 well. On day 3, medium was changed to mTeSR supplemented with dual SMAD inhibitors only. […] To dissociate organoid cultures, samples were collected and washed with 1 mL of PBS. The organoids were then transferred to 1 well of a 6-well plate with 2 ml of accutase and incubated on the rotary at 37° C. for 15 minutes. […] The dissociated cells were then transpired to a 15 mL conical and diluted with 3 times the volume of PBS.
# [4] = system: Human PSCs (organoids); assay: Organoid diameter from phase contrast images; format: cell-based
# Procedure: Human PSCs were seeded at 125 k cells/cm^2 in mTeSR supplemented with 10 μM ROCK inhibitor and 2 μM CHIR99102. For WNT treated cells, CHIR was supplemented into the media at each feed through day 7. 48 hours later, cell layers were dissociated using Accutase and counted. For organoid culture, 800 μm pyramidal PDMS inserts were placed into 24-well plates. 1 ml mTeSR containing 10 μM ROCK inhibitor was added to the wells containing the molds and the plate was centrifuged at 2,000×g for 3 minutes to get rid of any bubbles. Dissociated cells, either hPSCs or WNT pre-treated cells, were then added slowly into the wells at 10,000 cells per organoid in mTeSR supplemented with 10 μM ROCK inhibitor, 0.2 LDN193189, and 10 μM SB431542 ([…], Cambridge, MA). […] To change the media on the cells for the rest of the differentiation, the organoids were pipetted into a conical and allowed to settle. Old media was aspirated off and new media was used to resuspend the organoids and transfer them back to the 6 well. On day 3, medium was changed to mTeSR supplemented with dual SMAD inhibitors only. […] Phase contrast images of the organoids were taken using the EVOS® FL Imaging System. The size analysis performed in FIG. 12 was performed manually using Image J. The size analysis performed in FIG. 13 was done using a Python script to first segment the organoids using a watershed segmentation algorithm. […]
# [5] = system: organoids; assay: Calcium imaging of maturing organoids (Ca^2+ fluctuations); format: cell-based, human; conditions: day 33 onward
# Procedure: On day 17 of differentiation, organoids were switched to neural maturation medium (BRAINPHYS™ (neurophysiological basal medium) plus SM1 supplement (Stemcell Technologies (Bardy, van den Hurk et al. 2016)) supplemented with 10 ng/ml of BDNF, GDNF, CNTF, and IGF, R&D Systems). Medium was completely changed every 5 days for the remainder of the culture duration.
# Endogenous GCaMP6 signal was used to detect calcium flux in differentiations performed with the WTC GCaMP6 cell line. Alternatively, cultures of cells that lacked GCaMP expression were washed with PBS and the medium was replaced with NEUROBASAL™ (neural cell culture medium) plus Fluo4 AM (5 μM, Life Technologies) for 1 hour at 37° C. The cultures were then washed with fresh Neurobasal and allowed to recover for an additional […] at 37° C. before recording on a Zeiss Axio Observer. To assess Ca^2+ fluctuations, cultures were imaged at a rate of 17 frames per second. To analyze the results, ROI were selected by hand using Zen software. For organoids, the outer edge of the tissue was selected and for monolayer cultures, individual neurons were selected. The relative fluorescent units (RFU) measured at the ROIs were processed using Python3. A detrend function with a robust linear regression was performed for normalization and a 4 Hz lowpass Butterworth filter was applied to minimize noise.
# [6] = pur 100 nM and RA 100 nM, day 17 (FIG. 12F)
compound,measurement,setting,value
"Cc1cnc(-c2cnc(NCCNc3ccc(C#N)cn3)nc2-c2ccc(Cl)cc2Cl)[nH]1 [CHIR 99021, 6-[[2-[[4-(2,4-Dichlorophenyl)-5-(5-methyl-1H-imidazol-2-yl)-2-pyrimidinyl]amino]ethyl]amino]-3-pyridinecarbonitrile]",CHX10 percentage,[1],increased
"CC1=C(/C=C/C(C)=C/C=C/C(C)=C/C(=O)O)C(C)(C)CCC1 [RA, retinoic acid]",RA concentration at which CHX10 percentage peaked,[2]; pur constant at 100 nM,30 to 100 nM
same,RA concentration at which LHX5 percentage peaked,[2]; pur constant at 100 nM,10 nM
"c1ccc2c(Oc3nc(Nc4ccc(N5CCOCC5)cc4)c4ncn(C5CCCCC5)c4n3)cccc2c1 [pur, 9-Cyclohexyl-N-[4-(4-morpholinyl)phenyl]-2-(1-naphthalenyloxy)-9H-purin-6-amine]",LHX5 percentage,"[2]; at 10 and 30 nM pur compared to 100 nM pur, RA kept at 100 nM, p<0.05",increased
same,CHX10 percentage,"[2]; at 30 and 100 nM pur, RA kept at 100 nM, p<0.05",greater
same,"percentages of V2a, V0 and chemosensing subtypes","[3]; 10 nM pur, day 17 (FIG. 13D)",low percentages of all subtypes
same,PHOX2A and PHOX2B percentages,"[3]; 100 nM and 1 μM pur condition versus 10 nM, day 17",highest
same,percentage of CHX10 positive cells,"[3]; 100 nM pur, day 17 (FIG. 13D)",3.5%
same,percentage of LHX5 positive cells,"[3]; 100 nM pur, day 17 (FIG. 13D)",36.5%
same,percentage of CHX10 positive cells,"[3]; 1 μM pur, day 17 (FIG. 13D)",23.3%
same,percentage of LHX5 positive cells,"[3]; 1 μM pur, day 17 (FIG. 13D)",3.1%
same,percentage of CHX10^+ cells,[3]; [6],< 5%
same,percentage of LHX5^+ cells,[3]; [6],~80%
same,percentage of PHOX2A^+ cells,[3]; [6],< 5%
same,percentage of PHOX2B^+ cells,[3]; [6],< 5%
same,organoid diameter,"[4]; 10 nM and 100 nM pur groups, throughout the differentiation",~500 μm
same,organoid diameter,"[4]; 1 μM pur group, by day 17",approximately 700 μm
same,periodic synchronous Ca^2+ fluctuations,[5]; organoids differentiated with 10 nM pur (V0^lowV2a^low),few periodic synchronous events
same,periodic synchronous Ca^2+ fluctuations,[5]; organoids differentiated with 100 nM pur (V0^highV2a^low),more rhythmic overall
same,periodic synchronous Ca^2+ fluctuations,[5]; organoids differentiated with 1 μM pur (V0^lowV2a^high),more sporadic
